How the values were obtained:
[1] = Metabolic stability in monkey liver microsomes; type: in vitro ADME
Experimental: FMO was deactivated by heating liver microsomes at 45°C for 5 min. […] The natural logarithm of the percentage of the drug remaining was plotted against the incubation time, and the slope of the linear regression (-k) was converted to in vitro half-lives (t1/2) using the following equation: […] (1) metabolic clearance is the major mechanism of clearance; (2) liver is the major organ of clearance; and (3) oxidation is the major metabolic pathway. CLint,in vitro=k / Cmicrosomes , Scaled CLint,in vivo=CLint,in vitro×microsomes yield×liver weight, where Cmicrosomes means the experimental protein concentration (0.5 mg/mL) in the incubation system. […] Then, the scaled in vivo intrinsic clearance was used to predict the systemic clearance (equal to the hepatic clearance) using the well-stirred venous equilibration model ([Houston, 1994]).

plasma proteins [2] = assay: Plasma protein binding (RED), monkey plasma; type: in vitro ADME
Experimental: (§1) The plate containing plasma and buffer was equilibrated for 6 h in a 37°C water shaking bath. After incubation, aliquots of buffer and plasma (20 µL) on both sides were collected and precipitated using organic solvents. […] The post-dialysis recovery of amdizalisib was also measured.

plasma proteins [3] = assay: Plasma protein binding (RED), mouse plasma; type: in vitro ADME
Experimental: as §1

MATE2-K = MATE2-K (Homo sapiens, UniProt Q86VL8); assay: MATE2-K inhibition, tetraethylammonium uptake in transfected HEK293 cells; conditions: for Percentage transported / Uptake rate: MATE2-K
Sequence of MATE2-K (Q86VL8 1-566 isoform Q86VL8-3): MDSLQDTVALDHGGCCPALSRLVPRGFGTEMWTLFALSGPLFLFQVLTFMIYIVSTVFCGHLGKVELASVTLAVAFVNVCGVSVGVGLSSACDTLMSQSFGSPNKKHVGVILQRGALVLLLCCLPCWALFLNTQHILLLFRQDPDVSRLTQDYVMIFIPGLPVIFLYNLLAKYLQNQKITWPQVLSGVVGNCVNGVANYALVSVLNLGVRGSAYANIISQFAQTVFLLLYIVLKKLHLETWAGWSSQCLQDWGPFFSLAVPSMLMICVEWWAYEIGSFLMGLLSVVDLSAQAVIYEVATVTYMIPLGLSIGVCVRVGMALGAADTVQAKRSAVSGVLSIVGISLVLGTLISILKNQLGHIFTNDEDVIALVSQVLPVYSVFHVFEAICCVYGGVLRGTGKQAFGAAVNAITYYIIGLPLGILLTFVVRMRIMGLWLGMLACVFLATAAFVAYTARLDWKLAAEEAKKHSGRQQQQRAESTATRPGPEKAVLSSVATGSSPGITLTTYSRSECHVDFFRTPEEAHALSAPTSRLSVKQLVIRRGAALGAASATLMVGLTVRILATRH
Experimental: The pre-incubation solutions were removed, and incubation solutions containing the inhibitors and probe substrates (or transport buffer containing an equal volume of vehicle control and probe substrates) were added and incubated at 37°C for 2 min (5 min for OATP1B3). The probe substrate for OAT1 was 4-aminohippuric acid (10 μM), for OAT3 was estrone 3-sulfate (10 μM), for OCT2 was metformin (100 μM), for OATP1B1 was β-estradiol 17-(β-D-glucuronide) (5 μM), for OATP1B3 was β-estradiol 17-(β-D-glucuronide) (10 μM), and for MATE1 and MATE2-K was tetraethylammonium (10 μM). After incubation, cells were washed three times with ice-cold transport buffer (25 mM HEPES, pH 7.4, pH 8.0 for overexpressing MATE1 and MATE2-K HEK293 cells) and lysed in distilled water. The concentrations of probe substrates were determined by LC-MS/MS, and a BCA Kit (Solarbio ®Life Sciences, Beijing, China) was used to determine the protein content in the cell lysate.
where C is the concentration of the drug in the cell lysate (nM), P is the protein concentration of the cell lysate (mg/mL), and T is the incubation time (minute). Uptake ratetest compound is the uptake rate of the substrate in the presence of the test compound. Uptake ratevehicle control is the uptake rate of the substrate in the presence of the vehicle control. Uptake ratepassive is the uptake rate of the substrate in the presence of the positive inhibitor at the top test concentration.

CYP3A4 = assay: CYP induction in human hepatocytes, CYP3A4 enzyme activity; type: in vitro ADME
Experimental: (§2) […] […] […] Enzyme activity for each CYP isoform was reported as a fold change over vehicle control and the percent of positive control (detailed calculation in Supplementary 1.1). Hepatocytes were harvested with a lysis buffer from RNeasy 96 Kit (Qiagen Inc., Germantown, MD, USA) to isolate RNA, which was analyzed by real-time quantitative polymerase chain reaction (RT-PCR). […] Emax (the maximal observed induction) and EC50 (the concentration that supports half-maximal induction) were estimated by non-linear regression of fold increase in CYP mRNA expression versus concentration plots.
The fold of vehicle control and the percent of positive control were calculated with the formulas below:
Fold of vehicle control = CYPs activity of test compound (or positive control) treated sample / CYPs activity of vehicle control treated sample
% of positive control = [(fold change in treated sample)-1] / [(fold change in positive control)-1] × 100

[4] = Amdizalisib remaining/concentration after the last incubation in hepatocyte induction assays; conditions: for Amdizalisib concentration: CYP2C induction assay; for percentage of amdizalisib remaining: 5 h after last incubation
Experimental: as §2

[5] = Metabolic stability in rat liver microsomes; type: in vitro ADME; conditions: for CLint scaled at 1 µM: pH 7.4, Predicted CL int, iv vivo
Experimental: FMO was deactivated by heating liver microsomes at 45°C for 5 min. […] (1) metabolic clearance is the major mechanism of clearance; (2) liver is the major organ of clearance; and (3) oxidation is the major metabolic pathway. CLint,in vitro=k / Cmicrosomes , Scaled CLint,in vivo=CLint,in vitro×microsomes yield×liver weight, where Cmicrosomes means the experimental protein concentration (0.5 mg/mL) in the incubation system.

C[C@H](Nc1ncnc(N)c1C#N)c1cc2ncc(Cl)n2nc1-c1ccccc1 [Amdizalisib]
CLint scaled at 1 µM ([1]; female, monkey, microsomes, pH 7.4, Predicted CL int, iv vivo): 19.2 mL/min/kg | half-life at 1 µM ([1]; female, monkey, microsomes, pH 7.4, in vitro t1/2): 1.63 h | Predicted CL sys ([1]; male monkey liver microsomes, FMO deactivation): 15.9 mL/min/kg | CLint scaled at 1 µM ([1]; male, monkey, microsomes, pH 7.4, Predicted CL int, iv vivo): 30 mL/min/kg | half-life at 1 µM ([1]; male, monkey, microsomes, pH 7.4, in vitro t1/2): 1.04 h | CLint scaled at 1 µM ([1]; pH 7.4, female monkey liver microsomes, FMO deactivation, read-out: Predicted CL int, iv vivo): 18.1 mL/min/kg | half-life at 1 µM ([1]; pH 7.4, female monkey liver microsomes, FMO deactivation, read-out: in vitro t1/2): 1.72 h | Binding fraction to plasma proteins, Monkey (plasma proteins [2]; 0.1 µM): 90.6 ± 4.56% | Binding fraction to plasma proteins, Monkey (plasma proteins [2]; 1 µM): 89.7 ± 0.22% | Binding fraction to plasma proteins, Monkey (plasma proteins [2]; 20 µM): 88.9 ± 0.38% | Binding fraction to plasma proteins, Mouse (plasma proteins [3]; 1 µM): 91.5 ± 1.01% | Binding fraction to plasma proteins, Mouse (plasma proteins [3]; mouse, 6 h, 0.1 µM, pH 7.4): 91.1 ± 0.95% | Binding fraction to plasma proteins, Mouse (plasma proteins [3]; mouse, 6 h, 20 µM, pH 7.4): 91.3 ± 0.89% | IC50 (MATE2-K): 38.2 µM | calculated R value (MATE2-K) (MATE2-K): < 1.1 | Percentage transported (MATE2-K; compound 0.3 μM): 87.1% | Uptake rate (MATE2-K; compound 0.3 μM): 125±3.49 pmol/mg protein/min | Percentage transported (MATE2-K; compound 1 μM): 89.9% | Uptake rate (MATE2-K; compound 1 μM): 129±7.96 pmol/mg protein/min | Percentage transported (MATE2-K; compound 3 μM): 89.0% | Uptake rate (MATE2-K; compound 3 μM): 127±5.50 pmol/mg protein/min | Percentage transported (MATE2-K; compound 10 μM): 89.6% | Uptake rate (MATE2-K; compound 10 μM): 128±4.89 pmol/mg protein/min | Percentage transported (MATE2-K; compound 30 μM): 49.3% | Uptake rate (MATE2-K; compound 30 μM): 73.9±6.49 pmol/mg protein/min | Percentage transported (MATE2-K; compound 100 μM): 29.6% | Uptake rate (MATE2-K; compound 100 μM): 47.4±3.61 pmol/mg protein/min | inhibition at 2 min, 0.3 µM (MATE2-K; human, pH 8): 12.9% | inhibition at 2 min, 1 µM (MATE2-K; human, pH 8): 10.1% | inhibition at 2 min, 3 µM (MATE2-K; human, pH 8): 11% | inhibition at 2 min, 10 µM (MATE2-K; human, pH 8): 10.4% | inhibition at 2 min, 30 µM (MATE2-K; human, pH 8): 50.7% | inhibition at 2 min, 100 µM (MATE2-K; human, pH 8): 70.4% | Enzyme activity Percent of PC (%) (CYP3A4; CYP3A4, donor seven, 1 µM): 4.50% | Enzyme activity Percent of PC (%) (CYP3A4; CYP3A4, donor seven, 3 µM): 4.60% | Enzyme activity Percent of PC (%) (CYP3A4; CYP3A4, donor seven, 10 µM): 19.8% | Enzyme activity Percent of PC (%) (CYP3A4; CYP3A4, donor seven, 20 µM): 5.20% | Enzyme activity Percent of PC (%) (CYP3A4; CYP3A4, donor seven, 30 µM): 4.60% | Enzyme activity Percent of PC (%) (CYP3A4; CYP3A4, donor six, 1 µM): 0.50% | Enzyme activity Percent of PC (%) (CYP3A4; CYP3A4, donor six, 3 µM): 3.60% | Enzyme activity Percent of PC (%) (CYP3A4; CYP3A4, donor six, 10 µM): 19.8% | Enzyme activity Percent of PC (%) (CYP3A4; CYP3A4, donor six, 20 µM): 28.9% | Enzyme activity Percent of PC (%) (CYP3A4; CYP3A4, donor six, 30 µM): 17.7% | Enzyme activity Percent of PC (%) (CYP3A4; CYP3A4, donor two, 1 µM): 0.10% | Enzyme activity Percent of PC (%) (CYP3A4; CYP3A4, donor two, 3 µM): 0.40% | Enzyme activity Percent of PC (%) (CYP3A4; CYP3A4, donor two, 10 µM): 4.40% | Enzyme activity Percent of PC (%) (CYP3A4; CYP3A4, donor two, 20 µM): 1.30% | Enzyme activity Percent of PC (%) (CYP3A4; CYP3A4, donor two, 30 µM): 1.40% | induction of CYP3A4 enzyme activity (CYP3A4; up to 30.0 µM, all three donors): not considered an inducer | Amdizalisib concentration ([4]; nominal 3 µM, donor eight, 1h): 3.57 ± 0.26 µM | Amdizalisib concentration ([4]; nominal 3 µM, donor four, 1h): 3.38 ± 0.33 µM | Amdizalisib concentration ([4]; nominal 20 µM, donor eight, 1h): 23.3 ± 0.27 µM | Amdizalisib concentration ([4]; nominal 20 µM, donor eight, 4h): 21.2 ± 2.3 µM | Amdizalisib concentration ([4]; nominal 20 µM, donor eight, 24h): 21.9 ± 0.27 µM | percentage of amdizalisib remaining ([4]; donor seven, 30 µM): 105.3% | percentage of amdizalisib remaining ([4]; donor two, 10 µM): 105.8% | percentage of amdizalisib remaining ([4]; donor two, 30 µM): 104.3% | Predicted CL sys ([5]; female rat liver microsomes, normal): 10.7 mL/min/kg | CLint scaled at 1 µM ([5]; female, rat, microsomes): 13.3 mL/min/kg | half-life at 1 µM ([5]; female, rat, microsomes, pH 7.4, in vitro t1/2): 3.12 h | CLint scaled at 1 µM ([5]; male, rat, microsomes): 65.9 mL/min/kg | half-life at 1 µM ([5]; male, rat, microsomes, pH 7.4, in vitro t1/2): 0.632 h | half-life at 1 µM ([5]; pH 7.4, male rat liver microsomes, FMO deactivation, read-out: in vitro t1/2): 0.695 h

From paper PMC11211886 (Frontiers in Pharmacology, 2024)
